We go through one compound from patent US20150225454A1, “TETRABRANCHED PEPTIDES AND ANALOGUES AS A NEW CLASS OF ANTIMICROBIALS AND THEIR PREPARATION THEREOF” (priority 2012, published 2015).

Series [1] has as its system C. albicans (ATCC 10231 and DF2672R). Type of series: cell-based. The following applies: for time to 4 log reduction (99.99%) in viable cells: ATCC strain. The method, then: The time-kill kinetics was measured for two strains of C. albicans (ATCC 10231 and DF2672R). The cultures were grown overnight in SD broth and the cell concentration was adjusted to 10^5-10^6 CFU/ml with phosphate buffer. The peptide or antifungals were added to the individual cultures. […] The test solution was incubated at 37° C. with constant shaking. 100 μL of the suspension is withdrawn at predetermined time points, serially diluted (10^2 or 10^3 fold) and poured into the SDA plate. The plate was incubated for 48 h at 37° C. for colony counting. The data were expressed in terms of % cell viability relative to the positive control.

Another series concerns C. albicans ATCC10231. The series is described as follows: MIC in the presence of monovalent and divalent metal ions. Type of series: cell-based. As for the experimental part: For studying the effects of metal ions, SD broth was adjusted with appropriate concentrations of salts to yield a final concentration of 100 and 135 mM for NaCl and KCl and 0.5-2 mM for CaCl2 and MgCl2. MIC determinations were carried out as described above. C. albicans ATCC10231 cells and salts in broth were taken as a positive control. Salts alone (NaCl, KCl, and CaCl2 and MgCl2) in broth or with 22 μM peptide served as a negative control.

In series [2] the test system is C. albicans 2672R and C. albicans 1976R. Type of series: cell-based. Conditions: two clinical isolates. The method, then: The effect of 5% human serum on the activities of B4010 against two C. albicans clinical isolates was determined. The human male serum was centrifuged at 13,000 rpm for 10 mins in order to remove the lipids and the supernatant was collected. The MIC values against clinical isolates of C. albicans 2672R and C. albicans 1976R were determined both in standard medium (SD broth) as well as in standard medium containing 5% serum supernatant as before.

For a further series, the system named is IOBA-NHC cells. Type of series: cell-based, human. The following applies: 24 h incubation; read-out: EC50 (concentration that reduces the viable cells by 50%). An outline of the steps:
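Subconfluent (~70%) IOBA-NHC conjunctival cells, passages 50–80, seeded ~10,000/well and grown 24 h at 37 °C in supplemented DMEM/F12 with 10% FBS. Exposed to peptide at 0.22–225 μM; cytotoxicity followed over time by MultiTox-Fluor […] fluorescence (ex 485/em 520 nm).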

The subject of another series is C. albicans. Type of series: cell-based. The method, then:
For the effects of energy poisons and ion channel inhibitors, yeast cells (10^5-10^6 CFU/ml) were incubated for 2 h with or without additives at 37° C. A final concentration of 5.5 μM B4010 peptide was added to the cell suspension and incubated further for another 1.5 h at 37° C. Each cell suspension was further diluted and 100 μl of the cells were plated and incubated at 37° C. SDA plates with additives (and no peptide) served as the positive control. Cell viability was obtained by counting the number of colonies formed in each plate after 48 h incubation at 37° C. The final concentrations of the additives were: CCCP (5 μM), NaN3 (5 mM), 4-AP (1 mM), NPPB (0.5 mM), […] (1 mM) and tetra ethyl ammonium chloride (15 mM). The reported values were averages of two independent duplicate experiments. Control experiments with all the additives were also performed to assess the toxicity of the additives to C. albicans.

A short description of series [3]: Calcein release from mammalian model membrane SUVs. Conditions: PC:Cholesterol, compared with fungal model membrane. The method, then: Small unilamellar vesicles (SUVs) were prepared using PC/PE/PI or PS lipids (5:2.5:2.5) containing 15 wt % ergosterol or PC/Cholesterol (10:1) (Makovitzki et al., 2006). For the preparation of PC/PE/PI or PS/Erg SUV, the lipids were dissolved in chloroform/methanol (2:1, v/v) in a glass tube. Ergosterol was dissolved in same solvent and added to lipid mixture to make final ergosterol content of 15 wt %. The Lipid-ergosterol mixture was dried using nitrogen gas to form lipid layer. The film was hydrated in a buffer containing 20 mM PBS (pH 7), vortexed and sonicated. Each cycle of sonication (5 sec, 40° C.) is followed by freezing in liquid nitrogen and thawing on a water bath kept at 37° C. The procedure was repeated 5-6 times until an optically clear dispersion appeared. The SUV was divided into two parts. To the first part 50 mM calcein was added and incubated for 1 h. […] Changes in the fluorescence signal after addition of peptide or Triton X-100 was measured on a PTI spectrofluorometer, using an excitation wavelength of 480 nm and emission wavelength of 512 nm. The Percentage calcein released at each time point was calculated using the equation: […]
Where A0 is the observed fluorescence intensity upon addition of peptides, Amin is the average intensity at the baseline (before peptide addition), Amax is the average intensity at the saturation phase after adding 1% Triton X-100. […]

Values after ≈ are worked out from the molar mass of the structure shown. Where two headings read alike, the source gives them in different places. Where a SMILES comes first, the peptide text is derived from it. Bridges are numbered along the chain shown (N, C = ends). Roman numbers before positions name the chains, in order.

By MIC is commonly meant the lowest concentration found to suppress growth. A high value points to weaker potency. Turning to `CC(C)[C@H](NC(=O)[C@H](CCCCN)NC(=O)[C@H](CCCNC(=N)N)NC(=O)CNC(=O)[C@@H](N)CCCNC(=N)N)C(=O)N[C@H](C(=O)N[C@@H](CCCNC(=N)N)C(=O)N[C@@H](CCCNC(=N)N)C(=O)NCCCC[C@H](NC(=O)[C@H](CCCNC(=N)N)NC(=O)[C@H](CCCNC(=N)N)NC(=O)[C@@H](NC(=O)[C@@H](NC(=O)[C@H](CCCCN)NC(=O)[C@H](CCCNC(=N)N)NC(=O)CNC(=O)[C@@H](N)CCCNC(=N)N)C(C)C)C(C)C)C(=O)NCCCC[C@H](NC(=O)[C@H](CCCCNC(=O)[C@H](CCCNC(=N)N)NC(=O)[C@H](CCCNC(=N)N)NC(=O)[C@@H](NC(=O)[C@@H](NC(=O)[C@H](CCCCN)NC(=O)[C@H](CCCNC(=N)N)NC(=O)CNC(=O)[C@@H](N)CCCNC(=N)N)C(C)C)C(C)C)NC(=O)[C@H](CCCNC(=N)N)NC(=O)[C@H](CCCNC(=N)N)NC(=O)[C@@H](NC(=O)[C@@H](NC(=O)[C@H](CCCCN)NC(=O)[C@H](CCCNC(=N)N)NC(=O)CNC(=O)[C@@H](N)CCCNC(=N)N)C(C)C)C(C)C)C(=O)N[C@@H](CCCCN)C(=O)O)C(C)C` [Peptide B4010] (I: H-RGRKVVRRKKK-OH / II: H-RGRKVVRRK / III: H-RGRKVVRR / IV: H-RGRKVVRR; amide I:9-IV:C, I:10-II:C, II:9-III:C; N-terminus and C-terminus assumed), the “time to complete killing” value in series [1] (4×MIC) was 30 min; in series [1] (C. albicans DF2672R, 2×MIC), 60 min. In addition, the killing in series [1] (ATCC 10231, 1 h, 1) is approximately 91%; in series [1] (ATCC 10231, 48 h, 2) it was approximately 97%. In addition, in series [1] (ATCC and clinical isolates, 2× or 4×MIC), the “time to 3 log reductions of viable cells” value is listed as “less than 1 h”. The “time to 4 log reduction (99.99%) in viable cells” value was not above 20 minutes in series [1] (4×MIC) and not above 10 minutes in series [1] (8×MIC). For the same compound, the “increase in MIC” value amounted to 8 fold in the series on C. albicans ATCC10231 (25 mM KCl) and 2 fold in the series with C. albicans ATCC10231 (physiological concentrations of divalent cations). In addition, the “increase in MIC compared to medium without KCl” value in the series with C. albicans ATCC10231 (100 mM KCl) is more than 16 fold. The “decrease in MIC” value in the series on C. albicans ATCC10231 (135 mM NaCl) is 2 fold. In the series on C. albicans ATCC10231 (high concentration of Ca2+ and Mg2+ ions), the “change in MIC” value is on record as “two fold increase”. In addition, the MIC was determined as 5.5 µM (≈ 25.1 µg/mL) in series [2] (5% human serum) and 0.34 µM (≈ 1.55 µg/mL) in series [2] (without serum). For the same compound, the EC50 in the series with IOBA-NHC cells came out at 220 µM. In addition, the loss of viability with C. albicans is reported as 54±6%. For the same compound, the “protection from B4010-induced lethality” value in the series with C. albicans (cells pre-incubated with CCCP) is on record as “partial protection”; in the series with C. albicans (presence of NaN3) it was “complete protection”. Further, the viability entry in the series with C. albicans (cells pretreated with TEA and 4-AP) is “significant loss of viability”. Moreover, the calcein leakage entry in series [3] is “less calcein leakage”.
